Data from ChEMBL document CHEMBL1201862, “PubChem BioAssay data set” (2004).
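Step 1: Grow cells in 96-well plates. Step 2: Expose to compound for 48 hours at 5 concentrations. Step 3: Interpolate endpoints linearly; if unreached, use highest concentration. Here, GI50 denotes the concentration required for 50% inhibition of growth.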 Activity calls are given as the source filed them. No stated cut-off is given here; in the data, active = GI50 up to about 1.1 µM and inactive = higher.

How the values were obtained:
Test in all cases: NCI anticancer screen, dose series, 48 h
CAKI-1 = test system: CAKI-1
Malme-3M = test system: Malme-3M
HT-29 = test system: HT-29
U-251 = test system: U-251
SW-620 = test system: SW-620
COLO 205 = test system: COLO 205
HOP-92 = test system: HOP-92
NCI-H522 = test system: NCI-H522
OVCAR-8 = test system: OVCAR-8
OVCAR-3 = test system: OVCAR-3
CCRF-CEM = test system: CCRF-CEM
SK-MEL-2 = test system: SK-MEL-2
HCT-15 = test system: HCT-15
SF-268 = test system: SF-268
MDA-MB-435 = test system: MDA-MB-435
SF-539 = test system: SF-539
HCC 2998 = test system: HCC 2998
HOP-62 = test system: HOP-62
SK-MEL-28 = test system: SK-MEL-28

Row | Compound | GI50 (CAKI-1) | GI50 (Malme-3M) | GI50 (HT-29) | GI50 (U-251) | GI50 (SW-620) | GI50 (COLO 205) | GI50 (HOP-92) | GI50 (NCI-H522) | GI50 (OVCAR-8) | GI50 (OVCAR-3) | GI50 (CCRF-CEM) | GI50 (SK-MEL-2) | GI50 (HCT-15) | GI50 (SF-268) | GI50 (MDA-MB-435) | GI50 (SF-539) | GI50 (HCC 2998) | GI50 (HOP-62) | GI50 (SK-MEL-28)
1 | O=C1CC(Br)c2c(Cl)sc(Cl)c21 (centres undefined) | 3.1 µM (inactive) | 12.1 µM (inactive) | 11.4 µM (inactive) | 3.37 µM (inactive) | 1.84 µM (inactive) | 12.1 µM (inactive) | 15.1 µM (inactive) | 17 µM (inactive) | 3.1 µM (inactive) | 2.38 µM (inactive) | 0.403 µM (active) | 15.8 µM (inactive) | 8.07 µM | 6.58 µM (inactive) | 2.39 µM (inactive) | 8.3 µM (inactive) | 12 µM (inactive) | 6.01 µM (inactive) | 13.6 µM (inactive)
2 | Clc1ccc(NCNC2Nc3ccccc3N2)cc1Cl | 34.6 µM (inactive) | 92.9 µM (inactive) | 13.7 µM (inactive) | 52.5 µM (inactive) | 27.6 µM (inactive) | 35.8 µM (inactive) | 48.4 µM (inactive) | 22.4 µM (inactive) | 13.1 µM (inactive) | 29.3 µM (inactive) | 25 µM (inactive) | 32 µM (inactive) | 31.1 µM | 28.4 µM (inactive) | 20.6 µM (inactive) | 48.5 µM (inactive) | 73.6 µM (inactive) | 72.1 µM (inactive) | 70.5 µM (inactive)
3 | CNC1C(=O)C(C)C(O)(C(CC(C)C(O)/C=C/C=C/CNC(=O)C(C)(C)C(O)\C(C)=C/C=C\C=C\Cc2cnc(C)o2)OC)C12C(=O)OC2C.CNC1C(=O)C(C)C(O)(C(CC(C)C(O)/C=C/C=C/CNC(=O)C(C)(C)C(O)\C(C)=C/C=C\C=C\Cc2cnc(C)o2)OC)C12C(=O)OC2COC (centres undefined) | 31.8 µM (inactive) | 9.04 µM (inactive) | 3.27 µM (inactive) | 1.15 µM (inactive) | 8.65 µM (inactive) | 0.778 µM (active) | 2.72 µM (inactive) | 0.565 µM (active) | 0.459 µM (active) | 1.56 µM (inactive) | 0.614 µM (active) | 5.94 µM (inactive) | 21 µM | 5.68 µM (inactive) | 16 µM (inactive) | 23.2 µM (inactive) | 13.3 µM (inactive) | 8.43 µM (inactive) | 23.1 µM (inactive)
4 | O=C1OC(CN2CCN(c3ccccc3)CC2)CN1C(=S)Nc1ccccc1 (centres undefined) | > 100 µM (inactive) | > 100 µM (inactive) | 35.1 µM (inactive) | > 100 µM (inactive) | > 100 µM (inactive) | > 100 µM (inactive) | > 100 µM (inactive) | > 100 µM (inactive) | > 100 µM (inactive) | > 100 µM (inactive) | > 100 µM (inactive) | 31.8 µM (inactive) | > 100 µM | > 100 µM (inactive) | > 100 µM (inactive) | > 100 µM (inactive) | > 100 µM (inactive) | > 100 µM (inactive) | > 100 µM (inactive)
5 | CCCCCCN(C(=O)Oc1ccccc1)C(C#N)c1ccccc1 (centres undefined) | > 100 µM (inactive) | > 100 µM (inactive) | > 100 µM (inactive) | > 100 µM (inactive) | > 100 µM (inactive) | > 100 µM (inactive) | > 100 µM (inactive) | > 100 µM (inactive) | > 100 µM (inactive) | > 100 µM (inactive) | > 100 µM (inactive) | > 100 µM (inactive) | > 100 µM | > 100 µM (inactive) | > 100 µM (inactive) | > 100 µM (inactive) | > 100 µM (inactive) | > 100 µM (inactive) | > 100 µM (inactive)
6 | CN(CCCNC(=O)c1cn(C)c2c1ccc1cc(Cl)c(Cl)cc12)CCCNC(=O)c1cn(C)c2c1ccc1cc(Cl)c(Cl)cc12 | 11.6 µM (inactive) | 17.1 µM (inactive) | 14.8 µM (inactive) | 3.03 µM (inactive) | 4.19 µM (inactive) | 3.18 µM (inactive) | 11.6 µM (inactive) | 14.6 µM (inactive) | 14.8 µM (inactive) | 18.2 µM (inactive) | 8.53 µM (inactive) | 16.7 µM (inactive) | 11.9 µM | 13.7 µM (inactive) | 6.17 µM (inactive) | 15.7 µM (inactive) | 4 µM (inactive) | 14.3 µM (inactive) | 18.5 µM (inactive)
7 | Fc1ccccc1/N=c1\oc2ccc(Br)cc2cc1-c1nc2ccccc2[nH]1 | 9.55 µM (inactive) | 2.32 µM (inactive) |  | 6 µM (inactive) | > 21.9 µM (inactive) | 35.6 µM (inactive) | 18 µM (inactive) | 1.75 µM (inactive) | 9.23 µM (inactive) | 6.15 µM (inactive) | > 100 µM (inactive) | 8.18 µM (inactive) | 30.1 µM | 0.522 µM (active) | 23.1 µM (inactive) | 1.87 µM (inactive) | 10.4 µM (inactive) | 3.65 µM (inactive) | 14.5 µM (inactive)
8 | O=C(Nc1nnc(-c2ccc(Cl)cc2)o1)C(SC(=S)N1CCCCC1)c1ccccc1 (centres undefined) | 13.6 µM (inactive) | 3.11 µM (inactive) | 22.2 µM (inactive) | 13 µM (inactive) | 33.3 µM (inactive) | 24.4 µM (inactive) | 22.7 µM (inactive) | 17.6 µM (inactive) | 22.1 µM (inactive) | 19.3 µM (inactive) | 4.71 µM (inactive) | 15.7 µM (inactive) | 7.16 µM | 6.5 µM (inactive) | 21.2 µM (inactive) | 30 µM (inactive) | 21.4 µM (inactive) | 25.9 µM (inactive) | 18.1 µM (inactive)
9 | CCn1cc(C(=O)O)c(=O)c2cc3c(cc21)S(=O)(=O)CC3 | > 100 µM (inactive) | > 100 µM (inactive) | > 100 µM (inactive) | 24.2 µM (inactive) | > 100 µM (inactive) | > 100 µM (inactive) | > 100 µM (inactive) | > 100 µM (inactive) | > 100 µM (inactive) | > 100 µM (inactive) | > 100 µM (inactive) | > 100 µM (inactive) | > 100 µM | > 100 µM (inactive) | > 100 µM (inactive) | > 100 µM (inactive) | > 100 µM (inactive) | > 100 µM (inactive) | > 100 µM (inactive)
10 | ON[C@@H]1C=C[C@H](n2cnc3c(NC4CC4)ncnc32)C1 | > 100 µM (inactive) | > 100 µM (inactive) | > 100 µM (inactive) | > 100 µM (inactive) | > 100 µM (inactive) | > 100 µM (inactive) | > 100 µM (inactive) | > 100 µM (inactive) | > 100 µM (inactive) | > 100 µM (inactive) | > 100 µM (inactive) | > 100 µM (inactive) | > 100 µM | > 100 µM (inactive) | > 100 µM (inactive) | > 100 µM (inactive) | > 100 µM (inactive) | > 100 µM (inactive) | > 100 µM (inactive)
11 | COc1ccccc1C1CC(=O)CC(c2ccccc2OC)C12C(=O)NC(=S)NC2=O (centres undefined) | 68.9 µM (inactive) | 79.6 µM (inactive) | 73.8 µM (inactive) | > 100 µM (inactive) | 48.5 µM (inactive) | 32.6 µM (inactive) | 43.3 µM (inactive) | 51.3 µM (inactive) | > 100 µM (inactive) | 80.2 µM (inactive) | 46.6 µM (inactive) | 73.8 µM (inactive) | 42.5 µM | > 100 µM (inactive) | 25.4 µM (inactive) | 81.8 µM (inactive) | 62.7 µM (inactive) | > 100 µM (inactive) | 32.4 µM (inactive)
12 | Cc1ccc(NC(=S)C#N)c(C)c1 | > 100 µM (inactive) | 44.2 µM (inactive) | > 91.2 µM (inactive) | > 86.3 µM (inactive) | > 73.5 µM (inactive) | > 84.1 µM (inactive) | 74.8 µM (inactive) | 46.7 µM (inactive) | > 100 µM (inactive) | 37.7 µM (inactive) | 24.2 µM (inactive) | > 100 µM (inactive) | > 92.7 µM | > 87.3 µM (inactive) | 56 µM (inactive) | > 100 µM (inactive) | > 100 µM (inactive) | > 100 µM (inactive) | 65.3 µM (inactive)
13 | O=c1/c(=C/c2ccc([N+](=O)[O-])o2)sc2n1[C@@H](c1ccc3c(c1)OCO3)C=C(c1cc(F)c(Cl)cc1Cl)N=2 | 13.7 µM (inactive) | 19.7 µM (inactive) | 17.1 µM (inactive) | 19.9 µM (inactive) | 5.42 µM (inactive) | 18.7 µM (inactive) | 12.6 µM (inactive) | 25.8 µM (inactive) | 11.9 µM (inactive) | 16.8 µM (inactive) | 3.24 µM (inactive) | 25.1 µM (inactive) | 9.59 µM | 28.7 µM (inactive) | 13.4 µM (inactive) | 23.8 µM (inactive) | 12.9 µM (inactive) | 22.5 µM (inactive) | 22.3 µM (inactive)
14 | NC(=O)N/N=C1/c2ccccc2-n2nccc21 | 52.5 µM (inactive) | > 100 µM (inactive) | 76.4 µM (inactive) | > 100 µM (inactive) | > 100 µM (inactive) | 67.1 µM (inactive) | 64.7 µM (inactive) | > 100 µM (inactive) | > 100 µM (inactive) | 40.7 µM (inactive) | 37.6 µM (inactive) | > 100 µM (inactive) | 55.7 µM | 87.1 µM (inactive) | 57.4 µM (inactive) | 48.5 µM (inactive) | 52.5 µM (inactive) | 70.1 µM (inactive) | > 100 µM (inactive)
15 | CN(C)CCNc1ccc2ncnc3c2c1C(=O)c1ccccc1-3 | 0.259 µM (active) | 0.166 µM (active) | 0.463 µM (active) | 0.49 µM (active) | 0.129 µM (active) | 0.433 µM (active) | 1.12 µM (active) | 0.232 µM (active) | 0.466 µM (active) | 0.556 µM (active) | 0.143 µM (active) | 1.76 µM (inactive) | 0.323 µM | 0.513 µM (active) | 0.535 µM (active) | 0.667 µM (active) | 0.348 µM (active) | 0.242 µM (active) | 2.33 µM (inactive)
